Source: PubChem BioAssay (NCI)
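Exposure lasted 48 hours, with cells grown in 96-well plates and compounds tested at five concentrations. At the GI50, growth is halved. TGI marks complete inhibition of growth.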

Legend:
Experiment in all cases: growth of human tumour cells (NCI), 48 h
786-0 renal = system: 786-0 renal
A498 renal = system: A498 renal
A549 NSCLC = system: A549 NSCLC
ACHN renal = system: ACHN renal
BT-549 breast = system: BT-549 breast
CAKI-1 renal = system: CAKI-1 renal
CCRF-CEM leukemia = system: CCRF-CEM leukemia
COLO 205 colon = system: COLO 205 colon
DU-145 prostate = system: DU-145 prostate
EKVX NSCLC = system: EKVX NSCLC
HCC-2998 colon = system: HCC-2998 colon
HCT-15 colon = system: HCT-15 colon
HL-60(TB) leukemia = system: HL-60(TB) leukemia
HOP-62 NSCLC = system: HOP-62 NSCLC
HOP-92 NSCLC = system: HOP-92 NSCLC
HS 578T breast = system: HS 578T breast
HT29 colon = system: HT29 colon
IGROV1 ovarian = system: IGROV1 ovarian
K-562 leukemia = system: K-562 leukemia
KM12 colon = system: KM12 colon
LOX IMVI melanoma = system: LOX IMVI melanoma
M14 melanoma = system: M14 melanoma
MALME-3M melanoma = system: MALME-3M melanoma
MCF7 breast = system: MCF7 breast
MDA-MB-231 breast = system: MDA-MB-231 breast
MDA-MB-435 = system: MDA-MB-435
MDA-MB-468 breast = system: MDA-MB-468 breast
MOLT-4 leukemia = system: MOLT-4 leukemia
NCI-H226 lung = system: NCI-H226 lung
NCI-H23 lung = system: NCI-H23 lung
NCI-H460 lung = system: NCI-H460 lung
NCI-H522 lung = system: NCI-H522 lung
NCI/ADR-RES ovarian = system: NCI/ADR-RES ovarian
OVCAR-3 ovarian = system: OVCAR-3 ovarian
OVCAR-4 ovarian = system: OVCAR-4 ovarian
OVCAR-5 ovarian = system: OVCAR-5 ovarian
OVCAR-8 ovarian = system: OVCAR-8 ovarian
PC-3 prostate = system: PC-3 prostate
RPMI-8226 leukemia = system: RPMI-8226 leukemia
RXF 393 renal = system: RXF 393 renal
SF-268 CNS = system: SF-268 CNS
SF-295 CNS = system: SF-295 CNS
SF-539 CNS = system: SF-539 CNS
SK-MEL-2 melanoma = system: SK-MEL-2 melanoma
SK-MEL-28 melanoma = system: SK-MEL-28 melanoma
SK-MEL-5 melanoma = system: SK-MEL-5 melanoma
SK-OV-3 ovarian = system: SK-OV-3 ovarian
SN12C renal = system: SN12C renal
SNB-19 CNS = system: SNB-19 CNS
SNB-75 CNS = system: SNB-75 CNS
SR leukemia = system: SR leukemia
SW-620 colon = system: SW-620 colon
T-47D breast = system: T-47D breast
TK-10 renal = system: TK-10 renal
U251 CNS = system: U251 CNS
UACC-257 melanoma = system: UACC-257 melanoma
UACC-62 melanoma = system: UACC-62 melanoma
UO-31 renal = system: UO-31 renal

## CC(=O)Oc1ccccc1C(=O)Oc1ccc(C(=O)/C=C/c2ccncc2)cc1
786-0 renal
  GI50: 16.1 µM
  TGI: > 100 µM
A498 renal
  GI50: 20.5 µM
  TGI: 71.4 µM
A549 NSCLC
  GI50: 15.1 µM
  TGI: > 100 µM
ACHN renal
  GI50: 15.6 µM
  TGI: 44.9 µM
BT-549 breast
  GI50: 17 µM
  TGI: 38.7 µM
CAKI-1 renal
  GI50: 19.3 µM
  TGI: > 100 µM
CCRF-CEM leukemia
  GI50: 2380 nM
  TGI: > 100 µM
COLO 205 colon
  GI50: 12.7 µM
  TGI: 40.5 µM
DU-145 prostate
  GI50: 10.5 µM
  TGI: 44.1 µM
EKVX NSCLC
  GI50: 14.7 µM
  TGI: 45.7 µM
HCC-2998 colon
  GI50: 4.83 µM
  TGI: 16.4 µM
HCT-15 colon
  GI50: 3.55 µM
  TGI: 18.8 µM
HL-60(TB) leukemia
  GI50: 4.93 µM
  TGI: 34.1 µM
HOP-62 NSCLC
  GI50: 27.5 µM
  TGI: > 100 µM
HOP-92 NSCLC
  GI50: 21.1 µM
  TGI: > 100 µM
HS 578T breast
  GI50: 22.5 µM
  TGI: > 100 µM
HT29 colon
  GI50: 3.6 µM
  TGI: 20.1 µM
IGROV1 ovarian
  GI50: 7.4 µM
  TGI: 54 µM
K-562 leukemia
  GI50: 2290 nM
  TGI: > 100 µM
KM12 colon
  GI50: 3.57 µM
  TGI: 22.2 µM
LOX IMVI melanoma
  GI50: 1960 nM
  TGI: 5.87 µM
M14 melanoma
  GI50: 14.5 µM
  TGI: > 100 µM
MALME-3M melanoma
  GI50: 16.5 µM
  TGI: 51.4 µM
MCF7 breast
  GI50: 1100 nM
  TGI: 9.24 µM
MDA-MB-231 breast
  GI50: 8.6 µM
  TGI: 36.2 µM
MDA-MB-435
  GI50: 4.45 µM
  TGI: 44.3 µM
MDA-MB-468 breast
  GI50: 2360 nM
  TGI: 8.34 µM
MOLT-4 leukemia
  GI50: 15.9 µM
  TGI: 85.9 µM
NCI-H226 lung
  GI50: 26.4 µM
  TGI: > 100 µM
NCI-H23 lung
  GI50: 10.8 µM
  TGI: 30.8 µM
NCI-H460 lung
  GI50: 11.2 µM
  TGI: 48.9 µM
NCI-H522 lung
  GI50: 4.85 µM
  TGI: 21.5 µM
NCI/ADR-RES ovarian
  GI50: 20.7 µM
  TGI: > 100 µM
OVCAR-3 ovarian
  GI50: 5.3 µM
  TGI: 26 µM
OVCAR-4 ovarian
  GI50: 29.7 µM
  TGI: > 100 µM
OVCAR-5 ovarian
  GI50: 24.9 µM
  TGI: 99.1 µM
OVCAR-8 ovarian
  GI50: 24.9 µM
  TGI: > 100 µM
PC-3 prostate
  GI50: 10.4 µM
  TGI: > 100 µM
RPMI-8226 leukemia
  GI50: 1580 nM
  TGI: 7.19 µM
RXF 393 renal
  GI50: 5.25 µM
  TGI: 20.8 µM
SF-268 CNS
  GI50: 25 µM
  TGI: > 100 µM
SF-295 CNS
  GI50: 8.56 µM
  TGI: 58.1 µM
SF-539 CNS
  GI50: 4.29 µM
  TGI: 17.4 µM
SK-MEL-2 melanoma
  GI50: 32.5 µM
  TGI: > 100 µM
SK-MEL-28 melanoma
  GI50: 19.3 µM
  TGI: 62.1 µM
SK-MEL-5 melanoma
  GI50: 12.4 µM
  TGI: 29.5 µM
SK-OV-3 ovarian
  GI50: 30.9 µM
  TGI: > 100 µM
SN12C renal
  GI50: 10.1 µM
  TGI: 45.5 µM
SNB-19 CNS
  GI50: 15.3 µM
  TGI: 47.3 µM
SNB-75 CNS
  GI50: 15.8 µM
  TGI: > 100 µM
SR leukemia
  GI50: 407 nM
  TGI: > 100 µM
SW-620 colon
  GI50: 3.04 µM
  TGI: 18.9 µM
T-47D breast
  GI50: 23.8 µM
  TGI: 97.6 µM
TK-10 renal
  GI50: 37.4 µM
  TGI: > 100 µM
U251 CNS
  GI50: 3.77 µM
  TGI: 70.8 µM
UACC-257 melanoma
  GI50: 16.9 µM
  TGI: 63.4 µM
UACC-62 melanoma
  GI50: 16.6 µM
  TGI: 42.3 µM
UO-31 renal
  GI50: 10.3 µM
  TGI: 24 µM
